How the values were obtained:
PRMT5-MTA = PRMT5-MTA (Homo sapiens, UniProt O14744); test: Enzymatic inhibitory activity against PRMT5-MTA (AlphaScreen); format: biochemical; conditions: read-out: IC50
Outline: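 PRMT5/[…] (1 nM) was preincubated for 30 min at room temperature with 1 µM […] and 2.5 µM SAM, then exposed to compound (10-point, 3-fold from 1000 nM) for 15 min at 23 °C. Histone H4 substrate (5 nM) was added and reacted for 45 min at 23 °C. Symmetric dimethyl-R3 H4 was detected by AlphaScreen and IC50 calculated.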

HCT116 MTAP KO cells = test: Inhibitory activity against cell proliferation (CellTiter Glo, 6 days), HCT116 MTAP KO; format: cell-based; conditions: for IC50: Homo sapiens, HCT-116, 144 h, HCT116 MTAP KO cells, 6 days, CellTiter Glo, read-out: HCT116 MTAP KO IC50; for Selectivity HCT 116-WT/ HCT116 MTAP KO: ratio of IC50 HCT116-WT / HCT116 MTAP KO
Outline: (§1)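 Following overnight attachment of 250 cells per well in McCoy's 5A medium with 10% FBS, compounds spanning 8 concentrations (4-fold, top 10000 nM) were applied for 6 days. Growth inhibition IC50 was derived from luminescent ATP signal.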

HCT116-WT cells = test: Inhibitory activity against cell proliferation (CellTiter Glo, 6 days), HCT116-WT; format: cell-based; conditions: 144 h, HCT116-WT cells, 6 days, CellTiter Glo; read-out: HCT116-WT IC50
Outline: as §1

Sequence of PRMT5-MTA (O14744 whole entry): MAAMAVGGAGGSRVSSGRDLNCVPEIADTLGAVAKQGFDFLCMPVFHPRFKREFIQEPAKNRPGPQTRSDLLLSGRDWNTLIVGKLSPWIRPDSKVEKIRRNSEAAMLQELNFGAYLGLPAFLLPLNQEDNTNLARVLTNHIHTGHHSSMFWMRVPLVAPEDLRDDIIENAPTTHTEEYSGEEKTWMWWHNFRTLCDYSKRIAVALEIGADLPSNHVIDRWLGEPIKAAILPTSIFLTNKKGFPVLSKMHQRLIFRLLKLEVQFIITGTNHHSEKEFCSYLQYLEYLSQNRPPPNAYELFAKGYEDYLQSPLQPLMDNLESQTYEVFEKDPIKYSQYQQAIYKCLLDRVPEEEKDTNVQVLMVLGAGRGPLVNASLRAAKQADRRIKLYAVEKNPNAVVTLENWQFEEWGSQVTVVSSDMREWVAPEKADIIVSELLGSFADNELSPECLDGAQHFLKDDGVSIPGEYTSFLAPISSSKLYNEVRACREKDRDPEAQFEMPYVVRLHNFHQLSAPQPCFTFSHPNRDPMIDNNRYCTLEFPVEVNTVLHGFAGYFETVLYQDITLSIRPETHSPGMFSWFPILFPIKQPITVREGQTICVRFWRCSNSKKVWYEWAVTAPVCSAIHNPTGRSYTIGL
Sequence of PRMT5-MTA (Q9BQA1 whole entry partner): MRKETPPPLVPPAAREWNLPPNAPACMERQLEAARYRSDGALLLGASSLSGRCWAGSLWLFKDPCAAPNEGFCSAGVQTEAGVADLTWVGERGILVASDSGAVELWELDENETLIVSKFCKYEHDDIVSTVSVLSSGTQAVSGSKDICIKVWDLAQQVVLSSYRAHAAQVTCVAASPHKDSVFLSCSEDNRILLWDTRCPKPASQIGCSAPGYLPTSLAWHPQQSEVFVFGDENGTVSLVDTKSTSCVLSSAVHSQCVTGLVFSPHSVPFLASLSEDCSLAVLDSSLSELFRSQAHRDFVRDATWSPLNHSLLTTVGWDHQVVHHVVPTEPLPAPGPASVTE

Row | SMILES | IC50 (PRMT5-MTA) | IC50 (HCT116 MTAP KO cells) | Selectivity HCT 116-WT/ HCT116 MTAP KO (HCT116 MTAP KO cells) | IC50 (HCT116-WT cells)
1 | Cc1cc2cc(C(=O)N(Cc3ccc(-c4ccoc4)cn3)N(C)c3ncccn3)ccc2nc1N [Example 156, 2-amino-N-((5-(furan-3-yl)pyridin-2-yl)methyl)-N',3-dimethyl-N'-(pyrimidin-2-yl)quinoline-6-carbohydrazide] | 1.8 nM | 76 nM | 20.26 | 1540 nM
2 | Cc1cc2cc(C(=O)N(Cc3ccc(-c4cnsc4)cn3)N(C)c3ncccn3)ccc2nc1N [Example 157, 2-amino-N-((5-(isothiazol-4-yl)pyridin-2-yl)methyl)-N',3-dimethyl-N'-(pyrimidin-2-yl)quinoline-6-carbohydrazide] | 6.9 nM | 14 nM | 25.79 | 361 nM
3 | Cc1nc(C)c(-c2ccc(CN(C(=O)c3ccc4nc(N)c(C)cc4c3)N(c3ncccn3)C3CC3)nc2)s1 [Example 158, 2-amino-N'-cyclopropyl-N-((5-(2,4-dimethylthiazol-5-yl)pyridin-2-yl)methyl)-3-m ethyl-N'-(pyrimidin-2-yl)quinoline-6-carb ohydrazide] | 4.5 nM | 12 nM | 18.75 | 225 nM
4 | Cc1cc2cc(C(=O)N(Cc3ccc(C4=CCOCC4)cn3)N(C)c3ncccn3)ccc2nc1N [Example 159, 2-amino-N-((5-(3,6-dihydro-2H-pyran-4-yl)pyridin-2-yl)methyl)-N',3-dimethyl-N' -(pyrimidin-2-yl)quinoline-6-carbohydrazide] | 3.3 nM | 72 nM | 28.76 | 2070 nM
5 | Cc1ccc(-c2ccc(CN(C(=O)c3ccc4nc(N)c(C)cc4c3)N(C)c3ncccn3)nc2)cn1 [Example 160, 2-amino-N',3-dimethyl-N-((6'-methyl-[3, 3'-bipyridine]-6-yl)methyl)-N'-(pyrimidin-2-yl)quinoline-6-carbohydrazide] | 2 nM | 27 nM | 21.48 | 580 nM
6 | COc1ncc(F)cc1-c1ccc(CN(C(=O)c2ccc3nc(N)c(C)cc3c2)N(C)c2ncccn2)nc1 [Example 161, 2-amino-N-((5'-fluoro-2'-methoxy-[3,3'-bipyridine]-6-yl)methyl)-N',3-dimethyl-N'-(pyrimidin-2-yl)quinoline-6-carbohydrazide] | 1.7 nM | 87 nM | 20.48 | 1780 nM
7 | Cc1cc2cc(C(=O)N(Cc3ccc(-c4cnn(C)c4)cn3)N(C)c3nccc4nccnc34)ccc2nc1N [Example 162, 2-amino-N',3-dimethyl-N-((5-(1-methyl-1H-pyrazol-4-yl)pyridin-2-yl)methyl)-N'-(pyrido[3,4-b]pyrazin-5-yl)quinoline-6-carbohydrazide] | 5.4 nM | 36 nM | 23.61 | 850 nM
8 | Cc1cc2cc(C(=O)N(Cc3ccc(-c4cccnc4)cn3)N(C)c3ncccc3F)ccc2nc1N [Example 163, N-([3,3'-bipyridine]-6-ylmethyl)-2-amino -N'-(3-fluoropyridin-2-yl)-N',3-dimethylq uinoline-6-carbohydrazide] | 1.4 nM | 15 nM | 31.00 | 465 nM
9 | Cc1cc2cc(C(=O)N(Cc3ccc(C4CC4)cn3)N(C)c3ncccc3F)ccc2nc1N [Example 164, 2-amino-N-((5-cyclopropylpyridin-2-yl)methyl)-N'-(3-fluoropyridin-2-yl)-N',3-di methylquinoline-6-carbohydrazide] | 0.9 nM | 20 nM | 22.15 | 443 nM

From patent publication EP4745134A1 (Jiangsu Yahong Meditech Co., Ltd., priority 2023, dated 2025)
